Reference: the supplement of paper PMC11061612

Key:
[1] = test system: ASH-3 (Thyroid Gland Carcinoma); assay: Bliss excess, mean over the matrix (fraction); higher = more synergy
Procedure, shortened: (§1)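 After 24 hours at 37°C and 5% CO2 in 1536-well plates, cells in DMEM/F12 or RPMI plus 10% FBS received two-drug dose matrices for 72 hours. Viability came from CellTiter-Glo 2.0 luminescence and was scaled as inhibition, anchored at 0 by vehicle wells and at 1 by blank wells. Combination Emax is taken as the second-highest inhibition in the matrix, and Bliss excess as the observed combination effect less EA + EB − EA·EB, with EA and EB the single-agent effects.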

[2] = test system: BT-20 (Breast Carcinoma); assay: as above
Procedure, shortened: as §1

[3] = test system: EBC-1 (Squamous Cell Lung Carcinoma); assay: as above
Procedure, shortened: as §1

[4] = test system: EMC-BAC-2 (Non-Small Cell Lung Carcinoma); assay: as above
Procedure, shortened: as §1

[5] = test system: H-EMC-SS (Chondrosarcoma); assay: as above
Procedure, shortened: as §1

[6] = test system: KYSE-50 (Esophageal Squamous Cell Carcinoma); assay: as above
Procedure, shortened: as §1

[7] = test system: LC4-1 (B-Lymphoblastic Leukemia); assay: as above
Procedure, shortened: as §1

[8] = test system: LOU-NH91 (Squamous Cell Lung Carcinoma); assay: as above
Procedure, shortened: as §1

[9] = test system: NH-12 (Neuroblastoma); assay: as above
Procedure, shortened: as §1

[10] = test system: OVISE (Ovarian Carcinoma); assay: as above
Procedure, shortened: as §1

[11] = test system: PF-382 (T-Lymphoblastic Leukemia); assay: as above
Procedure, shortened: as §1

[12] = test system: PFSK-1 (Other Solid Carcinomas); assay: as above
Procedure, shortened: as §1

[13] = test system: SCC-3 (B-Cell Non-Hodgkin's Lymphoma); assay: as above
Procedure, shortened: as §1

[14] = test system: GI-1 (Glioblastoma); assay: combination Emax (second highest fraction inhibited in the dose matrix, 72 h); higher = more inhibition; extreme values may be limits of the assay
Procedure, shortened: as §1

[15] = test system: H-EMC-SS (Chondrosarcoma); assay: as above
Procedure, shortened: as §1

[16] = test system: HuP-T3 (Pancreatic Carcinoma); assay: as above
Procedure, shortened: as §1

[17] = test system: NCI-H2347 (Lung Adenocarcinoma); assay: as above
Procedure, shortened: as §1

[18] = test system: NCI-H513 (Other Solid Carcinomas); assay: as above
Procedure, shortened: as §1

[19] = test system: OCUB-M (Breast Carcinoma); assay: as above
Procedure, shortened: as §1

[20] = test system: OCUM-1 (Gastric Carcinoma); assay: as above
Procedure, shortened: as §1
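Wherever Bliss excess, mean over the matrix is given: after 72 h of two-drug dosing.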

SMILES	Bliss excess [1]	Bliss excess [2]	Bliss excess [3]	Bliss excess [4]	Bliss excess [5]	Bliss excess [6]	Bliss excess [7]	Bliss excess [8]	Bliss excess [9]	Bliss excess [10]	Bliss excess [11]	Bliss excess [12]	Bliss excess [13]	combination Emax [14]	combination Emax [15]	combination Emax [16]	combination Emax [17]	combination Emax [18]	combination Emax [19]	combination Emax [20]
C=CCn1c(=O)c2cnc(Nc3ccc(N4CCN(C)CC4)cc3)nc2n1-c1cccc(C(C)(C)O)n1 [AZD1775] + C1CN(CCC1(C(=O)N[C@@H](CCO)C2=CC=C(C=C2)Cl)N)C3=NC=NC4=C3C=CN4 [Capivasertib] (first compound max 3 µM, partner max 3 µM)	-0.0086	-0.0742	-0.0602	0.0514	-0.0422	-0.0306	-0.0233	-0.0301	-0.0728	-0.101	0.144	-0.0268	0.0613	0.907	0.464	0.655	0.477	0.494	0.955	0.707
Cn1cnc2c(F)c(Nc3ccc(Br)cc3Cl)c(C(=O)NOCCO)cc21 [Selumetinib] + C[C@@H]1COCCN1C2=NC(=NC(=C2)C3(CC3)[S@](=N)(=O)C)C4=C5C=CNC5=NC=C4 [AZD6738] (first compound max 10 µM, 7x7, partner max 10 µM)	0.0892	0.0733	-0.0062	0.0202	-0.0405	0.0013	-0.0168	0.0302	0.0315	-0.0405	-0.0047	-0.0535	0.0368	0.781	0.296	0.517	0.382	0.416	0.249	0.951
Cn1cnc2c(F)c(Nc3ccc(Br)cc3Cl)c(C(=O)NOCCO)cc21 [Selumetinib] + CC(C)n1c(=O)n(C)c2cnc3cc(F)c(-c4ccc(OCCCN5CCCCC5)nc4)cc3c21 [AZD1390] (first compound max 10 µM, 7x7, partner max 0.3 µM)	-0.0553	-0.0189	-0.0265	0.0079	-0.0135	-0.0046	-0.0312	0.0028	-0.064	-0.0339	-0.0238	-0.0492	0.0273	0.216	0.197	0.368	0.308	0.22	0.0283	0.951
Cc1nc(Nc2ncc(C(=O)Nc3c(C)cccc3Cl)s2)cc(N2CCN(CCO)CC2)n1 [Dasatinib] + CC(=O)Nc1cccc(-n2c(=O)n(C3CC3)c(=O)c3c(Nc4ccc(I)cc4F)n(C)c(=O)c(C)c32)c1 [Trametinib] (first compound max 2 µM, 7x7, partner max 1 µM)	0.0994	-0.0878	0.0399	-0.0795	0.0331	0.043	-0.0543	-0.0403	-0.0102	0.0504	0.198	-0.095	-0.0403	0.368	0.684	0.868	0.716	0.531	0.0542	0.988
CC(=O)c1c(C)c2cnc(Nc3ccc(N4CCNCC4)cn3)nc2n(C2CCCC2)c1=O [Palbociclib] + Cc1c2c(nn1C)CSCc1cc(n(C)n1)CSc1cc(c3ccccc3c1)OCCCc1c(C(=O)O)n(C)c3c-2c(Cl)ccc13 [AZD5991] (first compound max 10 µM, 7x7, partner max 1 µM)	-0.0324	-0.0834	0.0345	-0.0991	0.0444	-0.0658	-0.0081	-0.0901	0.0045	-0.0286	-0.0193	-0.0471	0.0284	0.455	0.502	0.266	0.148	0.171	0.882	0.285
CC1(C)CCC(CN2CCN(c3ccc(C(=O)NS(=O)(=O)c4ccc(NCC5CCOCC5)c([N+](=O)[O-])c4)c(Oc4cnc5[nH]ccc5c4)c3)CC2)=C(c2ccc(Cl)cc2)C1 [Venetoclax] + CCN(CCO)CCCOc1ccc2c(Nc3cc(CC(=O)Nc4cccc(F)c4)[nH]n3)ncnc2c1 [AZD2811] (first compound max 1 µM, 7x7, partner max 1 µM)	-0.0166	-0.0005	0.0178	-0.0038	-0.0468	0.0025	0.0039	-0.0477	0.0685	0.0134	0.0279	0.0663	0.0418	0.389	0.164	0.197	0.145	0.183	0.749	0.53
Cn1cnc2c(F)c(Nc3ccc(Br)cc3Cl)c(C(=O)NOCCO)cc21 [Selumetinib] + CCN(CCO)CCCOc1ccc2c(Nc3cc(CC(=O)Nc4cccc(F)c4)[nH]n3)ncnc2c1 [AZD2811] (first compound max 10 µM, 7x7, partner max 1 µM)	0.0505	0.0328	-0.003	0.0094	-0.0233	0.005	-0.0505	-0.0096	-0.0485	0.0202	0.111	-0.0438	0.11	0.286	0.263	0.359	0.312	0.264	0.713	0.93
Cc1c2c(nn1C)CSCc1cc(n(C)n1)CSc1cc(c3ccccc3c1)OCCCc1c(C(=O)O)n(C)c3c-2c(Cl)ccc13 [AZD5991] + Cc1cc2ncnn2cc1Nc1ncc2c(n1)n(C1CCOCC1)c(=O)n2C [AZD7648] (first compound max 1 µM, 7x7, partner max 10 µM)	-0.0739	-0.0139	-0.0127	-0.0141	0.0025	-0.0461	0.0017	-0.0307	-0.061	-0.043	0.038	-0.0199	-0.0119	0.672	0.479	0.228	0.287	0.324	0.983	0.215
NC1(C(=O)N[C@@H](CCO)c2ccc(Cl)cc2)CCN(c2ncnc3[nH]ccc23)CC1 [Capivasertib] + COc1nnc2ccc(N3CCC(c4ccc(OCCN5CCN(C)C(=O)[C@H]5C)cc4)CC3)nn12 [AZD5153] (first compound max 10 µM, 7x7, partner max 1 µM)	0.0231	0.0023	0.0374	0.0396	0.0011	-0.0054	0.002	-0.025	0.0177	-0.0055	0.0451	-0.0158	0.0248	0.915	0.351	0.522	0.314	0.416	0.998	0.596
NC1(C(=O)N[C@@H](CCO)c2ccc(Cl)cc2)CCN(c2ncnc3[nH]ccc23)CC1 [Capivasertib] + CC(=O)c1c(C)c2cnc(Nc3ccc(N4CCNCC4)cn3)nc2n(C2CCCC2)c1=O [Palbociclib] (first compound max 10 µM, 7x7, partner max 10 µM)	-0.0235	-0.0038	0.06	-0.0727	-0.0375	-0.0129	0.0772	-0.0617	0.0124	-0.0235	-0.0151	0.0014	0.0001	0.626	0.512	0.324	0.271	0.368	0.994	0.582
CC1(C)CCC(CN2CCN(c3ccc(C(=O)NS(=O)(=O)c4ccc(NCC5CCOCC5)c([N+](=O)[O-])c4)c(Oc4cnc5[nH]ccc5c4)c3)CC2)=C(c2ccc(Cl)cc2)C1 [Venetoclax] + C1CN(CCC1(C(=O)N[C@@H](CCO)C2=CC=C(C=C2)Cl)N)C3=NC=NC4=C3C=CN4 [Capivasertib] (first compound max 1 µM, 7x7, partner max 3 µM)	-0.0554	-0.035	-0.0395	-0.116	-0.0204	-0.0418	0.0227	-0.0805	-0.0289	-0.0059	-0.0144	0.0634	-0.0335	0.412	0.413	0.166	0.158	0.117	0.942	0.314
CC1(C)CCC(CN2CCN(c3ccc(C(=O)NS(=O)(=O)c4ccc(NCC5CCOCC5)c([N+](=O)[O-])c4)c(Oc4cnc5[nH]ccc5c4)c3)CC2)=C(c2ccc(Cl)cc2)C1 [Venetoclax] + C=CCn1c(=O)c2cnc(Nc3ccc(N4CCN(C)CC4)cc3)nc2n1-c1cccc(C(C)(C)O)n1 [AZD1775] (first compound max 1 µM, partner max 1 µM)	-0.0662	-0.0076	0.0315	-0.0562	-0.0532	-0.0395	0.0355	-0.0815	0.0148	-0.0676	-0.0639	-0.0171	-0.0024	0.902	0.223	0.399	0.291	0.47	0.754	0.653
Cn1cnc2c(F)c(Nc3ccc(Br)cc3Cl)c(C(=O)NOCCO)cc21 [Selumetinib] + C=CCn1c(=O)c2cnc(Nc3ccc(N4CCN(C)CC4)cc3)nc2n1-c1cccc(C(C)(C)O)n1 [AZD1775] (first compound max 10 µM, partner max 1 µM)	-0.0192	-0.0224	0.0508	-0.0711	-0.07	-0.0209	0.0314	-0.0144	-0.101	-0.0436	0.0137	-0.0549	0.0092	0.74	0.23	0.629	0.468	0.406	0.0588	0.944
